Data set [1] is described as follows: Storage stability of EC20 drug substance and EC20 kits. Type of data set: physicochemical. Particulars: −20° C. in amber glass bottles with butyl rubber stoppers. The method, then: EC20 kits were used for preparation of the ^99mTc-EC20 radioactive drug substance. Each kit contained a sterile, non-pyrogenic lyophilized mixture of 0.1 mg EC20, 80 mg sodium α-D-glucoheptonate, […] dihydrate, and sufficient sodium hydroxide or hydrochloric acid to adjust the pH to 6.8±0.2 prior to lyophilization. The lyophilized powder was sealed in a 5 mL vial under an argon atmosphere. The kits were then stored frozen at −20° C. until use or expiration (current shelf life is >2 years). The tin (II) chloride component is present to reduce the added ^99mTc-pertechnetate, while the sodium α-D-glucoheptonate component is present to stabilize the reduced ^99mTc prior to its final chelation to the EC20 compound.
EC20 Drug Substance is stored at −20° C. in amber glass bottles with butyl rubber stoppers.

Data set [2] has as its system folate receptors. Description: 99mTc-EC20 SPECT uptake in target lesions (EC-FV-02). Type of data set: in vivo, human. The method, then: EC20 Patient Scanning Procedure. Following completion of screening procedures and confirmation of eligibility, all subjects received one intravenous injection of 0.5 mg of folic acid followed within 1-3 minutes by a 1-2 mL injection of 0.1 mg of EC20 labeled with 20-25 mCi of technetium-99m. Patients then underwent SPECT imaging (mid-thigh to head, posterior and anterior images) 1-2 hours following injection of EC20. Target lesions were selected by the radiologist according to RECIST (v1.0) criteria. Subsequently, nuclear medicine physicians assessed EC20 uptake for each target lesion visually, and classified the uptake as “positive” (marked/mild uptake) or “negative” (no uptake).
EC20 Lesion Scoring Procedure.
Forty-five protocol-eligible subjects with a total of 216 RECIST-defined target tumors (ie, “lesions”) were included in this retrospective analysis (table below). One-hundred and forty-five (145/216; 67%) of the lesions were considered EC20 “evaluable.” Of these, 111 (77%) had EC20 “positive” uptake.

Data set [3] deals with folate receptors. Description: EC20 scan of ovarian cancer patients at the interim analysis of Example 25. The data set is classed as in vivo, human. Particulars: at the time of the interim analysis of Example 25. The text has this:
Folate-receptor status in the patient is positive if one or more tumors in the patient have folate receptors capable of binding EC20 or if all tumors in the patient are capable of binding EC20. In one illustrative example, the folate-radioactive imaging agent conjugate is ^99mTc-EC20. At the time of the interim analysis described in Example 25, below, 91.3% of all ovarian cancer patients scanned with EC20 had been “positive” (indicated by having at least one tumor lesion/area that binds EC20) versus 8.7% of patients that were fully EC20 “negative”.
In this visual assessment embodiment (visual detection), lesions are evaluated visually to determine if the patient has a threshold level of functionally active folate receptors indicative of a clinical benefit to the patient. In one aspect, lesions (i.e., tumors) for analysis in each patient are selected by a radiologist according to RECIST (v1.0) criteria. Subsequently, a nuclear medicine physician (i.e. reader) assesses the uptake of the EC20 for each evaluable target lesion visually, and classifies the uptake as “EC20 positive” (marked uptake/mild uptake) or “EC20 negative” (no uptake). In one illustrative example the folate-radioactive imaging agent conjugate is ^99mTc-EC20.

The mark [4] stands for this setting: of 145 evaluable lesions, visual SPECT assessment, 45 subjects.

For `Nc1nc2ncc(CNc3ccc(C(=O)N[C@H](CCC(=O)NC[C@H](N)C(=O)N[C@@H](CC(=O)O)C(=O)N[C@@H](CS)C(=O)O)C(=O)O)cc3)nc2c(=O)[nH]1` [EC20 Drug Substance, pteroyl-γ-D-glutamyl-β-L-2,3-diaminopropionyl-L-aspartyl-L-cysteine], in data set [1], the “time stable on storage” value is listed as “more than 24 months”.

As for `Nc1nc2ncc(CNc3ccc(C(=O)N[C@H](CCC(=O)NC[C@@H]4[NH][99Tc]56(=[O])[S]C[C@@H](C(=O)O)[N]5C(=O)[C@H](CC(=O)O)[N]6C4=O)C(=O)O)cc3)nc2c(=O)[nH]1` [EC20], the “subjects with EC20 uptake observed visually in at least 1 target lesion” value in the data set with folate receptors [2] (45 subjects, EC-FV-02) is recorded as “Eighty-seven percent”. In addition, in the data set on folate receptors [2] (setting [4]), the “Negative (EC20−(neg)) lesions” value was 34 (23%) N (%) and the “Positive (EC20+) lesions” value is 111 (77%) N (%). Besides, the “uptake in liver, spleen, bladder, and kidney” value in the data set with folate receptors [2] (organs whose target lesions were considered non-evaluable) is given as “inherently high uptake”. In the data set with folate receptors [3], the “ovarian cancer patients scanned "positive" (at least one tumor lesion/area that binds EC20)” value turned out to be 91.3% and the “patients fully EC20 "negative"” value is given as 8.7%.

The values above are taken from patent US20140140925A1, “FOLATE-TARGETED DIAGNOSTICS AND TREATMENT” (priority 2009, published 2014).
